Data published in patent publication US11713338B2, “Cyclic peptides multimers targeting α-4-β-7 integrin” (priority 2016, dated 2023).

Biological target: T1, recombinant integrin α4β7 (Homo sapiens, UniProt P13612+P26010, DEL724-798)
T1 construct: purchased R&D Systems 5397-A3-050
T1 sequence (P13612 34-970 limits assumed): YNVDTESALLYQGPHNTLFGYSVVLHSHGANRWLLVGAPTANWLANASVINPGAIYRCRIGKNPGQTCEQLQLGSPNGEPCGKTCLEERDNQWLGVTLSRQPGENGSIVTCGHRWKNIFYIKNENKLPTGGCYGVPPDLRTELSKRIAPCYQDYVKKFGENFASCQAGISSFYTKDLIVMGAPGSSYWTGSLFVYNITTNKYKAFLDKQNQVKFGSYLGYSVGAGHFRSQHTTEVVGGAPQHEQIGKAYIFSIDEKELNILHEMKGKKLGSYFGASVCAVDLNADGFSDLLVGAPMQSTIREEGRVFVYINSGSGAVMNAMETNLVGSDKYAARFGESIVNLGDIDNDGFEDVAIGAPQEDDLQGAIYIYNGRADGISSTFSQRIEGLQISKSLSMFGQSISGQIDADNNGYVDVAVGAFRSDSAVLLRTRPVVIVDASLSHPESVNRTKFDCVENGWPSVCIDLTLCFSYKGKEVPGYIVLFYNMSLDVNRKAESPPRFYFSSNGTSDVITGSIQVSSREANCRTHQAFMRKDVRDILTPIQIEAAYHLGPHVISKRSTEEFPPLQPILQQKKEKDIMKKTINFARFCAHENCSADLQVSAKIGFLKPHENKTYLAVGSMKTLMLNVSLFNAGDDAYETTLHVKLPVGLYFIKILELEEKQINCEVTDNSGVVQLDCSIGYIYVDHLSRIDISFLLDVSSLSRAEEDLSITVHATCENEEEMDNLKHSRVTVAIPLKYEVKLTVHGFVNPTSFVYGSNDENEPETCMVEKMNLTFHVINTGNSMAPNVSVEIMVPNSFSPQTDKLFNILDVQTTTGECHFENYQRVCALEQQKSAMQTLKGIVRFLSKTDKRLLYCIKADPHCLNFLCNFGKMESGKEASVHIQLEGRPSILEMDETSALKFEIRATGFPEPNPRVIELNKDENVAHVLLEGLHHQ
T1 sequence (P26010 20-723 limits assumed): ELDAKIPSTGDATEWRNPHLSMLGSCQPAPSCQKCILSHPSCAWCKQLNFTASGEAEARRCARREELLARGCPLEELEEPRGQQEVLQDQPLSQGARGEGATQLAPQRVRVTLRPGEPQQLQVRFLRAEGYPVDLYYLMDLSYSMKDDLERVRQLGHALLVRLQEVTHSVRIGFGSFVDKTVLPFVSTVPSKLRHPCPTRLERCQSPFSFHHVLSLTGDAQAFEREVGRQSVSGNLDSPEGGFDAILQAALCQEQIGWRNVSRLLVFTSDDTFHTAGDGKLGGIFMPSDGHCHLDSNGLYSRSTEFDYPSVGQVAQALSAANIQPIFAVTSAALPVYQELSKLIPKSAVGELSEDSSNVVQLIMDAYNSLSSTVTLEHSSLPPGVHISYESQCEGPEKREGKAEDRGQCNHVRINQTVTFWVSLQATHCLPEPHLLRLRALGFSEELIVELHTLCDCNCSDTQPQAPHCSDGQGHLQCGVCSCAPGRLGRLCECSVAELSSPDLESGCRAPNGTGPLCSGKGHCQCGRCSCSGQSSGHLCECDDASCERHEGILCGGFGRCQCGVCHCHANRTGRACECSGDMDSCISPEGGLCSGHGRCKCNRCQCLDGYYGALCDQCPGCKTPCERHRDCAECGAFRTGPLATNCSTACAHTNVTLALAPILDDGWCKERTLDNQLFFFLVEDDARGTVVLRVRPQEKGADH
Assay: Integrin α4β7—MAdCAM-1 ELISA competition assay
Type: binding
Conditions: for IC50: read-out: ELISA a4b7 Assay IC50; for ELISA Assay Ratio b1/b7: ratio of a4b1 to a4b7 ELISA IC50
Method: Integrin α4β7—MAdCAM-1 ELISA Competition Assay
The plate was incubated at 40C overnight. […] The plate was then incubated for 1 hour at room temperature. The plate was washed three times with wash buffer (50 mM Tris, 100 mM NaCl, 1 mM MnCl2, 0.05% Tween). To each well, 50 μl of compound diluted in assay buffer was added by transfer from a compound serial dilution plate. […] The plate was incubated at room temperature with shaking (300 rpm) for 2 hours to reach binding equilibrium. […] The plate was incubated at room temperature for 1 hour under agitation.

Row | Compound | IC50 [nM] | ELISA Assay Ratio b1/b7
1 | CC(C)C[C@@H]1NC(=O)c2ccc(-c3cccc(CN)c3)c(c2)CNC(=O)[C@@H]2CCCN2[C@H](C(=O)NC(C)(C)C)[C@H](C)NC(=O)[C@H]([C@@H](C)O)NC(=O)[C@H](CC(=O)O)NC1=O [Compound 382] | 12 | –
2 | Cc1noc(C)c1-c1ccccc1C[C@H]1NC(=O)[C@@H]2CCCN2[C@H](C(=O)NC(C)(C)C)[C@H](C)NC(=O)[C@H]([C@@H](C)O)NC(=O)[C@H](CC(=O)O)NC(=O)[C@H](CC(C)C)NC(=O)C[C@H](CCCCN)NC1=O [Compound 276] | 134 | 106.2
3 | CC(C)C[C@@H]1NC(=O)[C@H]2C[C@H](O)CN2C(=O)[C@H](Cc2ccc(O)cc2)NC(=O)[C@@H]2CCCN2[C@H](C(=O)NC(C)(C)C)[C@H](C)NC(=O)[C@H]([C@@H](C)O)NC(=O)[C@H](CC(=O)O)NC1=O [Compound 140] | 53 | 9.6
4 | CC(C)C[C@@H]1NC(=O)[C@H](Cc2ccncc2)NC(=O)[C@@H]2CCCN2[C@H](C(=O)NC(C)(C)C)[C@H](C)NC(=O)[C@H]([C@@H](C)O)NC(=O)[C@H](CC(=O)O)NC1=O [Compound 54] | 190 | –
5 | CC(C)C[C@@H]1NC(=O)C[C@H](CCCCN)NC(=O)[C@H](Cc2cccc(-c3ccc(F)c(F)c3)c2)NC(=O)[C@@H]2CCCN2[C@H](C(=O)NC(C)(C)C)[C@H](C)NC(=O)[C@H]([C@@H](C)O)NC(=O)[C@H](CC(=O)O)NC1=O [Compound 267] | 44 | –
6 | C[C@@H]1NC(=O)[C@H]([C@@H](C)O)NC(=O)[C@H](CC(=O)O)NC(=O)[C@H](CC(C)(C)C)NC(=O)c2ccc(-c3ccnc4ccccc34)c(c2)CNC(=O)[C@@H]2CCCN2[C@@H]1C(=O)NC(C)(C)C [Compound 355] | 48 | –
7 | CC(C)C[C@@H]1NC(=O)c2ccc(N3CCOCC3)c(c2)CNC(=O)[C@@H]2CCCN2[C@H](C(=O)NC(C)(C)C)[C@H](C)NC(=O)[C@H]([C@@H](C)O)NC(=O)[C@H](CC(=O)O)NC1=O [Compound 379] | 33 | 4.9
8 | CC(C)C[C@@H]1NC(=O)C[C@H](CCCCN)NC(=O)[C@H](Cc2ccc3ccccc3c2)NC(=O)[C@@H]2CCCN2[C@H](C(=O)NC(C)(C)C)[C@H](C)NC(=O)[C@H]([C@@H](C)O)NC(=O)[C@H](CC(=O)O)NC1=O [Compound 203] | 55 | –
9 | CCCC[C@H]1NC(=O)[C@H](Cc2ccc(O)cc2)NC(=O)[C@@H]2CCCN2[C@H](C(=O)NC(C)(C)C)[C@H](C)NC(=O)[C@H]([C@@H](C)O)NC(=O)[C@H](CC(=O)O)NC(=O)[C@H](CC(C)C)NC1=O [Compound 155] | 54 | –
10 | C=CCOc1ccc(C[C@@H]2NC(=O)[C@@H]3CCCN3[C@H](C(=O)NC(C)(C)C)[C@H](C)NC(=O)[C@H]([C@@H](C)O)NC(=O)[C@H](CC(=O)O)NC(=O)[C@H](CC(C)C)NC(=O)[C@@H](CO)NC2=O)cc1 [Compound 167] | 147 | 13.6
11 | CC(C)C[C@@H]1NC(=O)C[C@H](CCCCN)NC(=O)[C@H](Cc2ccc(-c3ccccc3)cc2)NC(=O)[C@@H]2CCCN2[C@H](C(=O)NC(C)(C)C)[C@H](C)NC(=O)[C@H]([C@@H](C)O)NC(=O)[C@H](CC(=O)O)NC1=O [Compound 204] | 63 | –
12 | COc1ccc(-c2ccccc2C[C@@H]2NC(=O)[C@@H]3CCCN3[C@H](C(=O)NC(C)(C)C)[C@H](C)NC(=O)[C@H]([C@@H](C)O)NC(=O)[C@H](CC(=O)O)NC(=O)[C@H](CC(C)C)NC(=O)[C@H]3CCCCN3C2=O)cc1 [Compound 137] | 33 | 7.8
13 | CC(C)C[C@@H]1NC(=O)[C@H](Cc2ccc(-c3ccccc3)cc2)NC(=O)[C@@H]2CCCN2[C@H](C(=O)NC(C)(C)C)[C@H](C)NC(=O)[C@H]([C@@H](C)OCc2ccccc2)NC(=O)[C@H](CC(=O)O)NC1=O [Compound 18] | 120 | –
14 | CC(C)C[C@@H]1NC(=O)C[C@H](CCCCN)NC(=O)C2(CCc3ccccc3C2)NC(=O)[C@@H]2CCCN2[C@H](C(=O)NC(C)(C)C)[C@H](C)NC(=O)[C@H]([C@@H](C)O)NC(=O)[C@H](CC(=O)O)NC1=O (some centres unmarked) [Compound 282] | 119 | –
15 | CC(C)C[C@@H]1NC(=O)C[C@H](CCCCN)NC(=O)[C@H](Cc2ccccc2-c2cccnc2)NC(=O)[C@@H]2CCCN2[C@H](C(=O)NC(C)(C)C)[C@H](C)NC(=O)[C@H]([C@@H](C)O)NC(=O)[C@H](CC(=O)O)NC1=O [Compound 292] | 30 | –
16 | COc1cccc(Cl)c1-c1ccccc1C[C@@H]1NC(=O)[C@@H]2CCCN2[C@H](C(=O)NC(C)(C)C)[C@H](C)NC(=O)[C@H]([C@@H](C)O)NC(=O)[C@H](CC(=O)O)NC(=O)[C@H](CC(C)C)NC(=O)C[C@H](CCCCN)NC1=O [Compound 279] | 100 | –
17 | CC[C@H](C)[C@@H]1NC(=O)[C@H](CC(=O)O)NC(=O)[C@H](CC(C)C)NC(=O)[C@H](Cc2c[nH]c3ccccc23)NC(=O)[C@@H]2CCCN2[C@H](C(=O)NC(C)(C)C)[C@H](C)NC1=O [Compound 8] | 103 | –
18 | CC(C)C[C@@H]1NC(=O)C[C@H](CCCCN)NC(=O)[C@H](Cc2ccccc2-c2ncccc2Br)NC(=O)[C@@H]2CCCN2[C@H](C(=O)NC(C)(C)C)[C@H](C)NC(=O)[C@H]([C@@H](C)O)NC(=O)[C@H](CC(=O)O)NC1=O [Compound 294] | 45 | –
19 | COc1cccc(Cl)c1-c1cccc(C[C@@H]2NC(=O)[C@@H]3CCCN3[C@H](C(=O)NC(C)(C)C)[C@H](C)NC(=O)[C@H]([C@@H](C)O)NC(=O)[C@H](CC(=O)O)NC(=O)[C@H](CC(C)C)NC(=O)C[C@H](CCCCN)NC2=O)c1 [Compound 298] | 76 | –
20 | CC(C)C[C@@H]1NC(=O)[C@@H](Cc2ccncc2)NC(=O)[C@@H]2CCCN2[C@H](C(=O)NC(C)(C)C)[C@H](C)NC(=O)[C@H]([C@@H](C)O)NC(=O)[C@H](CC(=O)O)NC1=O [Compound 62] | 27 | 4.3
21 | CC(C)C[C@@H]1NC(=O)[C@H](Cc2ccc(O)cc2)NC(=O)[C@@H]2CCCN2C(C(=O)NC(C)(C)C)C(CSc2ccccc2)NC(=O)[C@H]([C@@H](C)O)NC(=O)[C@H](CC(=O)O)NC1=O (some centres unmarked) [Compound 3] | – | 2.474
22 | CC(C)C[C@@H]1NC(=O)C[C@H](CCCCN)NC(=O)[C@H](Cc2ccccc2-c2cc(C(F)(F)F)ccc2C(F)(F)F)NC(=O)[C@@H]2CCCN2[C@H](C(=O)NC(C)(C)C)[C@H](C)NC(=O)[C@H]([C@@H](C)O)NC(=O)[C@H](CC(=O)O)NC1=O [Compound 286] | 64 | –
23 | CC(C)C[C@@H]1NC(=O)C[C@H](CCCCN)NC(=O)[C@H](Cc2ccccc2-c2cccnc2Br)NC(=O)[C@@H]2CCCN2[C@H](C(=O)NC(C)(C)C)[C@H](C)NC(=O)[C@H]([C@@H](C)O)NC(=O)[C@H](CC(=O)O)NC1=O [Compound 297] | 37 | –
24 | CC(C)C[C@@H]1NC(=O)C[C@H](CCCCN)NC(=O)[C@H](Cc2ccc(CN)cc2)NC(=O)[C@@H]2CCCN2[C@H](C(=O)NC(C)(C)C)[C@H](C)NC(=O)[C@H](C(C)C)NC(=O)[C@H](CC(=O)O)NC1=O [Compound 254] | 55 | 33.0
25 | CC(C)C[C@@H]1NC(=O)c2ccc(N(C)C)c(c2)CNC(=O)[C@@H]2CCCN2[C@H](C(=O)NC(C)(C)C)[C@H](C)NC(=O)[C@H]([C@@H](C)O)NC(=O)[C@H](CC(=O)O)NC1=O [Compound 380] | 41 | –
26 | CC(C)C[C@@H]1NC(=O)c2cccc(c2)CN(Cc2ccccc2)C(=O)[C@@H]2CCCN2[C@H](C(=O)NC(C)(C)C)[C@H](C)NC(=O)[C@H]([C@@H](C)O)NC(=O)[C@H](CC(=O)O)NC1=O [Compound 357] | 102 | –
27 | Cc1cccc(C)c1-c1ccccc1C[C@@H]1NC(=O)[C@@H]2CCCN2[C@H](C(=O)NC(C)(C)C)[C@H](C)NC(=O)[C@H]([C@@H](C)O)NC(=O)[C@H](CC(=O)O)NC(=O)[C@H](CC(C)C)NC(=O)C[C@H](CCCCN)NC1=O [Compound 272] | 41 | 58.1
